Columns and labels:
Experiment in all cases: Anti-SARS-CoV-2 activity against VOCs, WST-8 assay in VeroE6 cells
Assay type in all cases: cell-based
Conditions in all cases: one range stated for beta, gamma and omicron
SARS-CoV-2^TY8 (Beta) = tested on: SARS-CoV-2^TY8 (Beta)
SARS-CoV-2^TY7 (Gamma) = tested on: SARS-CoV-2^TY7 (Gamma)
SARS-CoV-2^929 (Omicron) = tested on: SARS-CoV-2^929 (Omicron)

CC(C)(C)[C@H](NC(=O)C(Cl)(Cl)Cl)C(=O)N1C[C@H]2[C@@H]([C@H]1C(=O)N[C@H](C#N)C[C@@H]1CCCNC1=O)C2(C)C [Compound 5f, (1R,2S,5S)-N-((S)-1-Cyano-2-((S)-2-oxopiperidin-3-yl)ethyl)-3-((S)-3,3-dimethyl-2-(2,2,2-trichloroacetamido)butanoyl)-6,6-dimethyl-3-azabicyclo[3.1.0]hexane-2-carboxamide]
3–5 fold: loss of antiviral activity against beta variant (SARS-CoV-2^TY8 (Beta)) | loss of antiviral activity against gamma variant (SARS-CoV-2^TY7 (Gamma)) | loss of antiviral activity against omicron variant (SARS-CoV-2^929 (Omicron))

— paper PMC10964431 (European journal of medicinal chemistry, 2024)
